Assay results: PubChem BioAssay (NCI)
Several values for one entry are separate records, joined by “and”; a condition that tells them apart may be missing. Identical values can stand only once.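 A five-concentration, 48-hour dose response in 96-well plates underlies each endpoint, interpolated linearly between surrounding concentrations. GI50 = concentration required for 50% inhibition of growth. Definition used: TGI = concentration required for complete inhibition of growth.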

How the values were obtained:
Assay in all cases: DTP human tumour cell line panel, 48 h
MOLT-4 leukemia = test system: MOLT-4 leukemia
SF-295 CNS = test system: SF-295 CNS
DU-145 prostate = test system: DU-145 prostate
SR leukemia = test system: SR leukemia
RPMI-8226 leukemia = test system: RPMI-8226 leukemia
SK-MEL-28 melanoma = test system: SK-MEL-28 melanoma
M14 melanoma = test system: M14 melanoma
PC-3 prostate = test system: PC-3 prostate
NCI/ADR-RES ovarian = test system: NCI/ADR-RES ovarian
UO-31 renal = test system: UO-31 renal

Compound | GI50 (MOLT-4 leukemia) | TGI (MOLT-4 leukemia) | GI50 (SF-295 CNS) | TGI (SF-295 CNS) | GI50 (DU-145 prostate) | TGI (DU-145 prostate) | GI50 (SR leukemia) | TGI (SR leukemia) | GI50 (RPMI-8226 leukemia) | TGI (RPMI-8226 leukemia) | GI50 (SK-MEL-28 melanoma) | TGI (SK-MEL-28 melanoma) | GI50 (M14 melanoma) | TGI (M14 melanoma) | GI50 (PC-3 prostate) | TGI (PC-3 prostate) | GI50 (NCI/ADR-RES ovarian) | TGI (NCI/ADR-RES ovarian) | GI50 (UO-31 renal) | TGI (UO-31 renal)
CN(C)CCCn1c2c(c3ccc(N4CCNCC4)cc3c1=O)C(=O)c1ccccc1-2 | 0.0979 µM | 0.922 µM | 1.16 µM | 3.36 µM | 0.329 µM | 1.65 µM | 0.307 µM | 1.69 µM | 0.271 µM | 0.978 µM | 1.53 µM | 3.33 µM | 1.05 µM | 2.39 µM | 0.863 µM | 3.79 µM | 1.16 µM | 2.83 µM | 0.765 µM | 2.56 µM
C/C=C/C(C/C=C(\C)CO[Si](C)(C)C(C)(C)C)O[Si](C)(C)C(C)(C)C (stereo unspecified) |  | > 100 µM |  | > 100 µM |  | > 100 µM |  | > 100 µM |  | > 100 µM |  | > 100 µM |  | > 100 µM |  | > 100 µM |  | > 100 µM |  | > 100 µM
O=C(c1ccco1)c1c(C(F)(F)F)n([O-])c2cc(Cl)c(Cl)cc2[n+]1=O | 0.0591 µM | 1.41 µM | 0.247 µM | 0.825 µM | 0.787 µM | 2.03 µM | 0.0497 µM | 50 µM | 0.196 µM | 3.29 µM | 2.97 µM | 6.45 µM | 0.715 µM | 1.46 µM | 0.23 µM | 1.01 µM | 0.845 µM | 1.78 µM | 0.0465 µM | 0.211 µM
Cc1n[nH]c(C)c1-c1c(C)n[nH]c1C | 2.24 µM | > 27.3 µM | 1.81 µM | 3.63 µM | 1.99 µM | 4.13 µM | 1.21 µM | > 100 µM | 1.87 µM | 7.01 µM | 1.8 µM | 3.49 µM | 2.01 µM | 5.12 µM | 1.51 µM | 4.01 µM | 2.19 µM | 6.16 µM | 1.31 µM | 2.7 µM
FC(F)(F)c1ccc(-c2cnc(-c3nn[nH]n3)nc2NC2CCCCCC2)cc1 | > 10 µM | > 10 µM | > 10 µM | > 10 µM | > 10 µM | > 10 µM | > 10 µM | > 10 µM | > 10 µM | > 10 µM | > 10 µM | > 10 µM | > 10 µM | > 10 µM | > 10 µM | > 10 µM | > 10 µM | > 10 µM | > 10 µM | > 10 µM
CS(=O)c1cc(=O)c2ccccc2s1 (stereo unspecified) |  | 6.36 µM |  | 32.6 µM |  | 34.3 µM |  | 4.67 µM |  | 9.08 µM |  | 8.97 µM |  | 3.12 µM |  | 28.9 µM |  | 34.1 µM |  | 22.3 µM
CCOc1ccc(-c2nc3ccc(-c4nc5ccc(N6CCN(C)CC6)cc5[nH]4)cc3[nH]2)cc1OCC | 2.75 µM | 9.76 µM | 1.98 µM | 16.1 µM | 2.37 µM | 8.1 µM | 0.678 µM | 7.78 µM | 2.94 µM | 13.8 µM | 0.701 µM | 2.18 µM | 0.831 µM | 3.84 µM | 1.42 µM | 10.4 µM | > 100 µM | > 100 µM | 12.4 µM | 35.9 µM
Nc1ncnc2c1ncn2C1SC(CO)C(O)C1O (stereo unspecified) | > 100 µM | > 100 µM | 20.1 µM | 52.6 µM | 6.93 µM | 26.7 µM | 12.5 µM | 45.2 µM | 44.1 µM | > 100 µM | 56.5 µM | > 100 µM | 21 µM | 55.6 µM | 3.72 µM | 33.1 µM | 13.5 µM | 52.1 µM | 18.8 µM | 41.9 µM
C=C(C)[C@@H]1CC[C@]2(C(=O)OC)CC[C@]3(C)[C@H](CC[C@@H]4[C@@]5(C)CC/C(=N\OCCC(=NCCC#N)NOCCC#N)C(C)(C)[C@@H]5CC[C@]43C)[C@@H]12 | 2.52 µM | 13 µM | 21.4 µM | > 50 µM | 13.4 µM | > 50 µM | 2.87 µM | 16.5 µM | 4.91 µM | 42.7 µM | 17.1 µM | > 50 µM | 11.9 µM | > 50 µM | 2.26 µM | > 50 µM | 13.5 µM | > 50 µM | 15.6 µM | > 50 µM
CC(=O)Nc1ccc(S(=O)(=O)N2C(=O)CCC2C(=O)Nc2ccccc2)cc1 (stereo unspecified) | 1.96 µM | 14.5 µM | 0.33 µM | 3.41 µM | 3.46 µM | 19.2 µM | 0.913 µM | 12.1 µM | 0.83 µM | 15 µM | 1.79 µM | 18.1 µM | 0.265 µM | 12.5 µM | 1.08 µM | 15.7 µM | 1.61 µM | 29.1 µM | 0.55 µM | 16.5 µM
N/C(=N\O)c1cn(C2OC(CO)C(O)C2O)c2ncnc(N)c12 (stereo unspecified) | 0.277 µM | 1.64 µM | 0.275 µM | 7.3 µM | 0.19 µM |  | 0.0876 µM | 14.8 µM | 0.162 µM | 0.625 µM | 0.127 µM | 0.382 µM | 0.108 µM | 0.776 µM | 0.343 µM | 5.79 µM | 0.262 µM |  | 0.229 µM | 13.4 µM
CC1(C)CCC(c2ccc(Cl)cc2)=C(CN2CCN(c3ccc(C(=O)NS(=O)(=O)c4ccc(N[C@H](CCN5CCOCC5)CSc5ccccc5)c(S(=O)(=O)C(F)(F)F)c4)cc3)CC2)C1 | 0.124 µM |  | 1.52 µM | 3.2 µM | 2.76 µM | 7.12 µM | 2.34 µM | > 25.9 µM | 0.342 µM | 4.33 µM | 1.74 µM | 3.22 µM | 1.83 µM | 3.38 µM | 1.68 µM | 4.5 µM | 3.2 µM | 11.7 µM | 1.74 µM | 3.21 µM
CN1CC[C@H](N(C)C(=O)N2CC(c3cc(F)ccc3F)=C[C@@]2(CO)c2ccccc2)[C@H](F)C1 | 0.0377 µM | > 100 µM | 0.0148 µM | 18.2 µM | 0.033 µM | 35.4 µM | 0.00871 µM | 40.5 µM | 0.0294 µM | 40.8 µM |  | 28.3 µM | 0.00202 µM | 0.00507 µM | 0.0409 µM | > 100 µM | 0.0205 µM | 1.3 µM | 7.74 µM | > 100 µM
Nc1c2ccccc2nc2ccccc12 | 1.68 µM and 2.21 µM | 11.1 µM | 1.61 µM and 3.08 µM | 9.52 µM and 17.5 µM | 2.02 µM and 2.57 µM | 5.51 µM and 6.86 µM | 0.855 µM and 2.78 µM | 6.84 µM and 16.6 µM | 3.26 µM and 1.48 µM | 18.6 µM and 5.94 µM | 1.89 µM and 3.69 µM | 3.92 µM and 13.7 µM | 1.7 µM and 3.21 µM | 3.48 µM and 10 µM | 2.24 µM and 3.13 µM | 9.38 µM and 15.9 µM | 1.44 µM and 1.48 µM | 5.35 µM and 6.21 µM | 1.25 µM and 1.6 µM | 2.75 µM and 7.34 µM
N#CSc1c[nH]c2cccc(/C=C/C(=O)/C=C(O)/C=C/c3cccc4[nH]cc(SC#N)c34)c12 | 0.322 µM | 1.48 µM | 0.746 µM | 2.29 µM | 0.484 µM | 0.986 µM | 0.129 µM | > 33.3 µM | 0.128 µM | 0.9 µM | 0.495 µM | 1.15 µM | 0.437 µM | 1.11 µM | 0.136 µM | 1.77 µM | 2.72 µM | > 33.3 µM | 0.197 µM | 0.652 µM
CC[C@@]12CC(C(=O)OC)=C3Nc4ccccc4[C@@]34CCN(C[C@H]3O[C@H]31)[C@@H]24 | 27.9 µM | > 100 µM | 36.7 µM | > 100 µM | > 100 µM | > 100 µM | 24 µM | > 100 µM | 23.5 µM | > 100 µM | 86.2 µM | > 100 µM | 31.7 µM | > 100 µM | 52.7 µM | > 100 µM | 31 µM | > 100 µM | 34.9 µM | > 100 µM
c1c[nH]c(CN2CCN(Cc3ncc[nH]3)CC2)n1 |  | > 100 µM |  | > 100 µM |  | > 100 µM |  | > 100 µM |  | > 100 µM |  | > 100 µM |  | > 100 µM |  | > 100 µM |  | > 100 µM |  | > 100 µM
O=C1Nc2ccc(I)cc2/C1=C/c1cc(Br)c(O)c(Br)c1 | > 60.1 µM | > 100 µM | > 15.9 µM and 17.2 µM | > 100 µM | > 23.8 µM and 25 µM | > 100 µM | > 49.5 µM | 98.9 µM | 15.3 µM and 6.81 µM | > 100 µM | 14.4 µM and 9.72 µM | > 72.2 µM | 10.8 µM and 5.03 µM | > 25 µM and 72.1 µM | > 17.7 µM and 23.3 µM | > 74.7 µM | > 21.8 µM and 28.2 µM | > 100 µM | > 16.4 µM and 18.1 µM | > 25 µM and 58.9 µM
O=C(/C=C/c1ccccc1)c1ccccn1 |  | 61.4 µM and 72.6 µM |  | 33.9 µM and 59.9 µM |  | 24.8 µM and 40.5 µM | 1.96 µM and 7.94 µM | 7.7 µM and 54.6 µM | 5.71 µM and 15.9 µM | 31.6 µM and 81.1 µM |  | 40.7 µM and 81.5 µM |  | 29.9 µM |  | 47.3 µM and 41.3 µM |  | 54.5 µM and > 100 µM |  | 31 µM and 46.5 µM
Nc1nc(N)c2nc(CNc3ccc(C(=O)NC(CCC(=O)O)C(=O)O)cc3)cnc2n1 (stereo unspecified) | 0.0375 µM and < 0.0131 µM | > 100 µM | 0.0327 µM and < 0.0134 µM | > 100 µM | < 0.01 µM | > 100 µM | < 0.01 µM | > 100 µM | 0.0519 µM and 0.0313 µM | > 100 µM | 0.941 µM | > 100 µM | < 0.01 µM | > 100 µM | < 0.01 µM | > 100 µM | < 0.01 µM | > 100 µM | 0.0262 µM and < 0.01 µM | > 100 µM
O=c1[nH]c2c(ccc3cnccc32)c2c1CCC2 | 0.386 µM | > 100 µM | 0.362 µM | > 100 µM | 0.376 µM | > 100 µM |  | > 100 µM | 0.244 µM | 1.18 µM | 0.306 µM | 0.84 µM | 0.35 µM | 1.62 µM | 0.288 µM |  | 0.426 µM | > 100 µM | 0.243 µM | 0.67 µM
O=C(CNC(=O)c1cccc2ccccc12)Nc1ccccc1Oc1ccc(O)cc1 | 1.21 µM | > 25 µM | 0.62 µM | > 25 µM | 1.15 µM | > 25 µM | 0.459 µM | > 25 µM | 0.97 µM | 10.4 µM | > 25 µM | > 25 µM | 0.698 µM | > 25 µM | 1.31 µM | > 25 µM | 1.19 µM | > 25 µM | 1.78 µM | > 25 µM
